From patent US20210347805A1, “AZITHROMYCIN DERIVATIVES CONTAINING A PHOSPHONIUM ION AS ANTICANCER AGENTS” (RISING TIDE FOUNDATION, priority 2018, published 2021)

test system: MDA-231 cancer cells; assay: Inhibition of proliferation assay: cell confluence (IncuCyte live cell imaging); type: cell-based; conditions: MDA-231 cells; compound at 10 μM; IncuCyte imaging over 4-5 d
From the text: The confluence value is a surrogate for cell proliferation and growth. The value is expressed as a percent confluence, which represents the fraction of culture dish-surface that is occupied by cells. As the number of cells in the dish increases over time due to proliferation, so will their coverage of that surface increase. Expansion of the cell population on the cell culture-dish surface and confluence have mostly a linear relationship until the cells on the plate surface begin to reach saturation or maximum density. Confluence is determined based on image analysis. Image based software can identify objects in the image field base on changes to pixel density in a grey scale image. The software can then assign a mask to those pixels within the object. Objects can be ‘gated’ out based on size and shape. To determine cell confluence, images of cells are first masked as objects. The surface area of the image that is masked is measured and compared to the total surface area of the culture dish surface to obtain a percent confluence. MDA-231 cancer cells were obtained from ATCC. Cells were cultured in Dulbecco's Modified Eagle Medium (DMEM) supplemented with 10% Fetal Bovine Serum (FBS), 2 mM Glutamax, 1 mM Non Essential Amino Acid (NEAA) solution and 1 mM sodium pyruvate. […] Final DMSO concentrations were ≤0.1%. Images were acquired with an IncuCyte Live Cell Imaging microscopy (Essen Bioscience) at every 3 h under cell culture conditions with 10× objective over 4-5 d. Cell confluence was calculated from one field of view per well using the IncuCyte in-built algorithm. Relative confluence values were obtained by normalising each value to the time zero value in each sample.

Q: For `CC[C@H]1OC(=O)[C@H](C)[C@@H](O[C@H]2C[C@@](C)(OC)[C@@H](O)[C@H](C)O2)[C@H](C)[C@@H](O[C@@H]2O[C@H](C)C[C@H](N(C)C)[C@H]2O)[C@](C)(O)C[C@@H](C)CN(C)[C@H](C)[C@@H](O)[C@]1(C)O` [Azithromycin], which “% Confluence” value is on record?
A: 99.1%

Q: For `CC[C@H]1OC(=O)[C@H](C)[C@@H](O[C@H]2C[C@@](C)(OC)[C@@H](O)[C@H](C)O2)[C@H](C)[C@@H](O[C@@H]2O[C@H](C)C[C@H](N(C)C)[C@H]2O)[C@](C)(O)C[C@@H](C)CN(C(=O)CCCCCCCCCCCCC[P+](c2ccccc2)(c2ccccc2)c2cnn(C)c2)[C@H](C)[C@@H](O)[C@]1(C)O.[Cl-]` [Example 1, {14-[(2R,3S,4R,5R,8R,10R,11R,12S,13S,14R)-11-{[(2S,3R,4S,6R)-4-(dimethylamino)-3-hydroxy-6-methyloxan-2-yl]oxy}-2-ethyl-3,4,10-trihydroxy-13-{[(2R,4R,5S,6S)-5-hydroxy-4-methoxy-4,6-dimethyloxan-2-yl]oxy}-3,5,8,10,12,14-hexamethyl-15-oxo-1-oxa-6-azacyclopentadecan-6-yl]-14-oxotetradecyl}(1-methyl-1H-pyrazol-4-yl)diphenylphosphonium chloride], which “% Confluence” value is on record?
A: 4.3%

Q: How did the “% Confluence” value turn out when `CC[C@H]1OC(=O)[C@H](C)[C@@H](O[C@H]2C[C@@](C)(OC)[C@@H](O)[C@H](C)O2)[C@H](C)[C@@H](O[C@@H]2O[C@H](C)C[C@H](N(C)C)[C@H]2O)[C@](C)(O)C[C@@H](C)CN(C(=O)CCCCCCCCCCCC[P+](c2ccccc2)(c2ccccc2)c2cnn(C(C)C)c2)[C@H](C)[C@@H](O)[C@]1(C)O` [Example 2, {13-[(2R,3S,4R,5R,8R,10R,11R,12S,13S,14R)-11-{[(2S,3R,4S,6R)-4-(dimethylamino)-3-hydroxy-6-methyloxan-2-yl]oxy}-2-ethyl-3,4,10-trihydroxy-13-{[(2R,4R,5S,6S)-5-hydroxy-4-methoxy-4,6-dimethyloxan-2-yl]oxy}-3,5,8,10,12,14-hexamethyl-15-oxo-1-oxa-6-azacyclopentadecan-6-yl]-13-oxotridecyl}diphenyl[1-(propan-2-yl)-1H-pyrazol-4-yl]phosphonium chloride] was run?
A: 5.1%

Q: With `CC[C@H]1OC(=O)[C@H](C)[C@@H](O[C@H]2C[C@@](C)(OC)[C@@H](O)[C@H](C)O2)[C@H](C)[C@@H](O[C@@H]2O[C@H](C)C[C@H](N(C)C)[C@H]2O)[C@](C)(O)C[C@@H](C)CN(C(=O)CCCCCCCCCCC[P+](c2ccccc2)(c2ccccc2)c2cnn(C(C)(C)C)c2)[C@H](C)[C@@H](O)[C@]1(C)O` [Example 3, (1-tert-butyl-1H-pyrazol-4-yl)({12-[(2R,3S,4R,5R,8R,10R,11R,12S,13S,14R)-11-{[(2S,3R,4S,6R)-4-(dimethylamino)-3-hydroxy-6-methyloxan-2-yl]oxy}-2-ethyl-3,4,10-trihydroxy-13-{[(2R,4R,5S,6S)-5-hydroxy-4-methoxy-4,6-dimethyloxan-2-yl]oxy}-3,5,8,10,12,14-hexamethyl-15-oxo-1-oxa-6-azacyclopentadecan-6-yl]-12-oxododecyl})diphenylphosphonium chloride] as the compound, how does the “% Confluence” value read?
A: 4%

Q: With `CC[C@H]1OC(=O)[C@H](C)[C@@H](O[C@H]2C[C@@](C)(OC)[C@@H](O)[C@H](C)O2)[C@H](C)[C@@H](O[C@@H]2O[C@H](C)C[C@H](N(C)C)[C@H]2O)[C@](C)(O)C[C@@H](C)CN(C(=O)CCCCCCCCCCC[P+](c2ccccc2)(c2ccccc2)c2cnn(C3CCC3)c2)[C@H](C)[C@@H](O)[C@]1(C)O.[Cl-]` [Example 4, (1-cyclobutyl-1H-pyrazol-4-yl)({12-[(2R,3S,4R,5R,8R,10R,11R,12S,13S,14R)-11-{[(2S,3R,4S,6R)-4-(dimethylamino)-3-hydroxy-6-methyloxan-2-yl]oxy}-2-ethyl-3,4,10-trihydroxy-13-{[(2R,4R,5S,6S)-5-hydroxy-4-methoxy-4,6-dimethyloxan-2-yl]oxy}-3,5,8,10,12,14-hexamethyl-15-oxo-1-oxa-6-azacyclopentadecan-6-yl]-12-oxododecyl})diphenylphosphonium chloride] as the compound, how does the “% Confluence” value read?
A: 4.4%

Q: For `CC[C@H]1OC(=O)[C@H](C)[C@@H](O[C@H]2C[C@@](C)(OC)[C@@H](O)[C@H](C)O2)[C@H](C)[C@@H](O[C@@H]2O[C@H](C)C[C@H](N(C)C)[C@H]2O)[C@](C)(O)C[C@@H](C)CN(C(=O)CCCCCCC[P+](c2cc(C)cc(C)c2)(c2cc(C)cc(C)c2)c2cnn(C(C)C)c2)[C@H](C)[C@@H](O)[C@]1(C)O.[Cl-]` [Example 5, {8-[(2R,3S,4R,5R,8R,10R,11R,12S,13S,14R)-11-{[(2S,3R,4S,6R)-4-(dimethylamino)-3-hydroxy-6-methyloxan-2-yl]oxy}-2-ethyl-3,4,10-trihydroxy-13-{[(2R,4R,5S,6S)-5-hydroxy-4-methoxy-4,6-dimethyloxan-2-yl]oxy}-3,5,8,10,12,14-hexamethyl-15-oxo-1-oxa-6-azacyclopentadecan-6-yl]-8-oxooctyl}bis(3,5-dimethylphenyl)[1-(propan-2-yl)-1H-pyrazol-4-yl]phosphonium chloride], which “% Confluence” value is on record?
A: 23.1%

Q: With `CC[C@H]1OC(=O)[C@H](C)[C@@H](O[C@H]2C[C@@](C)(OC)[C@@H](O)[C@H](C)O2)[C@H](C)[C@@H](O[C@@H]2O[C@H](C)C[C@H](N(C)C)[C@H]2O)[C@](C)(O)C[C@@H](C)CN(C(=O)CCCCCC[P+](c2cc(C)cc(C)c2)(c2cc(C)cc(C)c2)c2cnn(C(C)C)c2)[C@H](C)[C@@H](O)[C@]1(C)O.[Cl-]` [Example 6, {7-[(2R,3S,4R,5R,8R,10R,11R,12S,13S,14R)-11-{[(2S,3R,4S,6R)-4-(dimethylamino)-3-hydroxy-6-methyloxan-2-yl]oxy}-2-ethyl-3,4,10-trihydroxy-13-{[(2R,4R,5S,6S)-5-hydroxy-4-methoxy-4,6-dimethyloxan-2-yl]oxy}-3,5,8,10,12,14-hexamethyl-15-oxo-1-oxa-6-azacyclopentadecan-6-yl]-7-oxoheptyl}bis(3,5-dimethylphenyl)[1-(propan-2-yl)-1H-pyrazol-4-yl]phosphonium chloride] as the compound, how does the “% Confluence” value read?
A: 15.3%

Q: With `CC[C@H]1OC(=O)[C@H](C)[C@@H](O[C@H]2C[C@@](C)(OC)[C@@H](O)[C@H](C)O2)[C@H](C)[C@@H](O[C@@H]2O[C@H](C)C[C@H](N(C)C)[C@H]2O)[C@](C)(O)C[C@@H](C)CN(C(=O)CCCCCC[P+](c2cc(C)cc(C)c2)(c2cc(C)cc(C)c2)c2cc(C)cc(C)c2)[C@H](C)[C@@H](O)[C@]1(C)O.[Cl-]` [Example 7, {7-[(2R,3S,4R,5R,8R,10R,11R,12S,13S,14R)-11-{[(2S,3R,4S,6R)-4-(dimethylamino)-3-hydroxy-6-methyloxan-2-yl]oxy}-2-ethyl-3,4,10-trihydroxy-13-{[(2R,4R,5S,6S)-5-hydroxy-4-methoxy-4,6-dimethyloxan-2-yl]oxy}-3,5,8,10,12,14-hexamethyl-15-oxo-1-oxa-6-azacyclopentadecan-6-yl]-7-oxoheptyl}tris(3,5-dimethylphenyl)phosphonium chloride] as the compound, how does the “% Confluence” value read?
A: 4.6%

Q: `CC[C@H]1OC(=O)[C@H](C)[C@@H](O[C@H]2C[C@@](C)(OC)[C@@H](O)[C@H](C)O2)[C@H](C)[C@@H](O[C@@H]2O[C@H](C)C[C@H](N(C)C)[C@H]2O)[C@](C)(O)C[C@@H](C)CN(C(=O)CCCCCCCCCCCCC[P+](c2ccccc2)(c2ccccc2)C2CCOCC2)[C@H](C)[C@@H](O)[C@]1(C)O.[Cl-]` [Example 8, {14-[(2R,3S,4R,5R,8R,10R,11R,12S,13S,14R)-11-{[(2S,3R,4S,6R)-4-(dimethylamino)-3-hydroxy-6-methyloxan-2-yl]oxy}-2-ethyl-3,4,10-trihydroxy-13-{[(2R,4R,5S,6S)-5-hydroxy-4-methoxy-4,6-dimethyloxan-2-yl]oxy}-3,5,8,10,12,14-hexamethyl-15-oxo-1-oxa-6-azacyclopentadecan-6-yl]-14-oxotetradecyl}(oxan-4-yl)diphenylphosphonium chloride] was tested. Which “% Confluence” value did it give?
A: 5.5%

Q: For `CC[C@H]1OC(=O)[C@H](C)[C@@H](O[C@H]2C[C@@](C)(OC)[C@@H](O)[C@H](C)O2)[C@H](C)[C@@H](O[C@@H]2O[C@H](C)C[C@H](N(C)C)[C@H]2O)[C@](C)(O)C[C@@H](C)CN(C(=O)CCCCCCCCCCCC[P+](C2CCCC2)(C2CCCC2)C2CCCC2)[C@H](C)[C@@H](O)[C@]1(C)O.[Cl-]` [Example 9, tricyclopentyl({13-[(2R,3S,4R,5R,8R,10R,11R,12S,13S,14R)-11-{[(2S,3R,4S,6R)-4-(dimethylamino)-3-hydroxy-6-methyloxan-2-yl]oxy}-2-ethyl-3,4,10-trihydroxy-13-{[(2R,4R,5S,6S)-5-hydroxy-4-methoxy-4,6-dimethyloxan-2-yl]oxy}-3,5,8,10,12,14-hexamethyl-15-oxo-1-oxa-6-azacyclopentadecan-6-yl]-13-oxotridecyl})phosphonium chloride], which “% Confluence” value is on record?
A: 4%

same assay, conditions: MDA-231 cells; compound at 100 μM; IncuCyte imaging over 4-5 d

Q: How did the “% Confluence” value turn out when `CC[C@H]1OC(=O)[C@H](C)[C@@H](O[C@H]2C[C@@](C)(OC)[C@@H](O)[C@H](C)O2)[C@H](C)[C@@H](O[C@@H]2O[C@H](C)C[C@H](N(C)C)[C@H]2O)[C@](C)(O)C[C@@H](C)CN(C)[C@H](C)[C@@H](O)[C@]1(C)O` [Azithromycin] was run?
A: 17%
